The text below walks through data of patent publication US9193978B2, “Production of alkenes by combined enzymatic conversion of 3-hydroxyalkanoic acids” (Scientist of Fortune, S.A., priority 2010, dated 2015).

For data set [1], the target named is T1, Picrophilus torridus MDP decarboxylase, SEQ ID NO: 1 (Picrophilus torridus, UniProt Q6KZB1).
T1 construct: His6 (inserted after the initiator methionine) (N); made in house; host or cells: Escherichia coli BL21(DE3)
T1 sequence (Q6KZB1 1-324): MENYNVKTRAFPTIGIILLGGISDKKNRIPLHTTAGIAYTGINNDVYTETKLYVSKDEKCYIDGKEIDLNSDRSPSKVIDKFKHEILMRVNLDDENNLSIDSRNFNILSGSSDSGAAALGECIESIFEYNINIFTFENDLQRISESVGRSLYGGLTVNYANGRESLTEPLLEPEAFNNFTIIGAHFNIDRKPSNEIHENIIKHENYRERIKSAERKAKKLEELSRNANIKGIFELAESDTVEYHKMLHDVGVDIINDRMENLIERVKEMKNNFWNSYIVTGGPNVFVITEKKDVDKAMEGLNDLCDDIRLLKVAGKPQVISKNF
Briefly: Phosphotransferase activity (ADP release from 3-hydroxyisovalerate and ATP), pyruvate kinase/lactate dehydrogenase coupled assay. The following applies: 40° C., pH 7.0, 5 mM ATP, 0-50 mM HIV. It is filed as biochemical. The text has this:
FIG. 12: Isobutene production from 3-hydroxyisovalerate in the following assays: • Without enzyme • In the presence of S. mitis MDP decarboxylase (SEQ ID NO:10) • In the presence of Th. acidophilum MDP decarboxylase (SEQ ID NO:2) • In the presence of both Th. acidophilum (SEQ ID NO:2) and S. mitis (SEQ ID NO:10) enzymes.
(§1) The release of ADP that is associated with IBN production from HIV was quantified using the pyruvate kinase/lactate dehydrogenase coupled assay (FIG. 10). The MDP decarboxylases from P. torridus (SEQ ID NO:1), Th. Acidophilum (SEQ ID NO:2), S. infantarius (SEQ ID NO:7), S. mitis (SEQ ID NO:10) were evaluated for their ability to phosphorylate HIV, releasing ADP.
(§2) The studied enzymatic reaction was carried out under the following conditions at 40° C.:
(§3) 0.5 mM Phosphoenolpyruvate
(§4) 3 U/ml Lactate dehydrogenase
(§5) 0-50 mM 3-Hydroxyisovalerate (HIV)
(§6) The pH was adjusted to 7.0.
(§7) Each assay was started by addition of particular enzyme (at a concentration from 0.05 to 1 mg/ml) and the disappearance of NADH was monitored by following the absorbance at 340 nm.
(§8) Assays with MDP decarboxylases from the P. torridus phylum as well from the Streptococcus genus gave rise to a reproducible increase in ADP production in the presence of HIV.

For data set [2], the target named is T2, Thermoplasma acidophilum MDP decarboxylase, SEQ ID NO: 2 (Thermoplasma acidophilum, UniProt Q9HIN1).
T2 construct: Th; His6 (inserted after the initiator methionine) (N); made in house; host or cells: Escherichia coli BL21(DE3)
T2 sequence (Q9HIN1 1-318): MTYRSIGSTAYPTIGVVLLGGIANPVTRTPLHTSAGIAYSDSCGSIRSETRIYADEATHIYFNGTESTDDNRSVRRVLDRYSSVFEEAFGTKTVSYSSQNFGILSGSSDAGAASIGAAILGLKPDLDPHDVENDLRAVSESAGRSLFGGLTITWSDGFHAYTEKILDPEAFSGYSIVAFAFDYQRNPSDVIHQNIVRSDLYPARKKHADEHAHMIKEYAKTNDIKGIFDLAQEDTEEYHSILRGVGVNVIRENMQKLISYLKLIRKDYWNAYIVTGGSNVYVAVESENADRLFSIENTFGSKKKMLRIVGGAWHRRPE
Described as above. The class given is biochemical. The following applies: 40° C., pH 7.0, 5 mM ATP, 0-50 mM HIV. Here is the method: as §1, §2, §3, §4, §5, §6, §7, §8

Data set [3] addresses T3, Streptococcus mitis MDP decarboxylase, SEQ ID NO: 10 (Streptococcus mitis, UniProt A0ACG7RFV4). Briefly: Kinetic parameters of isobutene production from 3-phosphonoxyisovalerate (GC). It is filed as biochemical. The following applies: pH 7.5, 37° C., 44 h, 40 mM ATP, 0-100 mM 3-phosphonoxyisovalerate. Here is the method: The kinetic parameters of isobutene production were measured under the following conditions:
0-100 mM 3-phosphonoxyisovalerate
(§9) The pH was adjusted to 7.5
The reaction was initiated by addition of 1 mg of purified MDP decarboxylase from S. mitis (SEQ ID NO:10) to 0.5 ml of reaction mixture. The mixture was then incubated without shaking at 37° C. for 44 h in a sealed vial of 2 ml (Interchim).
(§10) One ml of the gaseous phase was collected and injected into a Varian 430-GC gas chromatograph equipped with an FID detector and a CP SilicaPlot column (Varian). Commercial isobutene was used as reference.

The target in data set [4] is T3, Streptococcus mitis MDP decarboxylase, SEQ ID NO: 10. Nature of the data set: Effect of ATP on isobutene production from 3-phosphonoxyisovalerate (GC). It is filed as biochemical. The note with it: 10 mM ATP vs 0 mM ATP, 25 mM PIV, pH 7.5, 37° C., 26 h. The method, then: The assays of isobutene production were carried out under the following conditions:
0 mM ATP (assay No1 and No2)
10 mM ATP (assay No3 and No4)
25 mM 3-phosphonoxyisovalerate
as §9
The reaction was initiated by addition of 2 mg of purified MDP decarboxylase from S. mitis (SEQ ID NO:10) to 0.5 ml of reaction mixture. Control reactions were run in the absence of enzyme (assays No1 and No3).
The mixture was incubated without shaking at 37° C. for 26 h in a sealed vial of 2 ml (Interchim).
as §10

Substrate in data set [5]: CC(C)(O)CC(=O)O
Nature of the data set: Phosphotransferase activity (ADP release from 3-hydroxyisovalerate and ATP), pyruvate kinase/lactate dehydrogenase coupled assay. The class given is biochemical, Streptococcus infantarius. The following applies: other: 40° C., pH 7.0, 5 mM ATP, 0-50 mM HIV. The method, then: as §1, §2, §3, §4, §5, §6, §7, §8

By Km is commonly meant the concentration of substrate that gives half-maximal velocity. As for `CC(C)(O)CC(=O)O` [3-hydroxyisovalerate], the Km was determined as 9.17 mM in data set [1] and 4.02 mM in data set [2].
A word on the kcat: it is the number of substrate molecules converted per active site and unit of time at saturation. Turning to `CC(C)(CC(=O)O)OP(=O)(O)O` [3-phosphonoxyisovalerate], in data set [3], the Michaelis constant (Km) was > 60 mM and the kcat entry was “at least 1.3×10^−3 sec^−1”.
For the molecule `Nc1ncnc2c1ncn2[C@@H]1O[C@H](COP(=O)(O)OP(=O)(O)OP(=O)(O)O)[C@@H](O)[C@H]1O` [ATP], the “increase of isobutene production from 3-phosphonoxyisovalerate (PIV) on addition of ATP” value in data set [4] came to 120 fold.

B1: Streptococcus infantarius MDP decarboxylase, SEQ ID NO: 7 (Streptococcus infantarius subsp. infantarius ATCC BAA-102) (protein)
chain: MDRKIVTVKSYANIAIIKYWGKADAAKMIPATSSISLTLENMFTTTSVSFLPDSASHDEFYINGVLQDDKEHAKISAIIDQYRGQRSEYVKVETSNNMPTAAGLSSSSSGLSALVKACNELFETGLTRAELAQKAKFASGSSSRSFFGPLAAWDKDSGEVYPVQTDLKLAMIMLVLSDSKKSISSREGMKRCVETSTTFADWVKQSEQDYKDMLGYLKNNDFERVGELTERNALAMHDTNTHANPPFNYLTEESYKAMEFVKQLRSEGEKCYFTMDAGPNVKVLCLEEDLERLTKRFEENYRVIVSRTKEL
In general, kcat/Km refers to the second-order rate constant that governs catalysis at low substrate concentration. On to B1, for which, in data set [5], the Km is reported as 13.4 mM, the kcat amounted to 0.03 s⁻¹ and the kcat/Km was 2 M⁻¹ s⁻¹.
